Where two headings read alike, the source gives them in different places.
Assays:
HeLa cells = assay: Compound screen by flow cytometry: HeLa cell count as surrogate readout of cell viability (z-scoreHeLa); type: cell-based, human; conditions: for cell count rep 1 / z-scoreHeLa rep 1: replicate 1; for cell count rep 2 / z-scoreHeLa rep 2: replicate 2; for cell count rep 3 / z-scoreHeLa rep 3: replicate 3; for z-scoreHeLa mean: mean of 3 replicates
Method in brief: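 HeLa cells were infected with GFP-MRSA (mean MOI 6.8 ± 4.6) for 1 h, and extracellular bacteria were killed with 30 µg/ml gentamicin. Cells were then incubated overnight with kinase inhibitors in 5 µg/ml gentamicin, in triplicate against DMSO controls. Flow-cytometric cell count served as a viability surrogate, expressed as a plate z-score.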

intracellular MRSA = type: cell-based, Staphylococcus aureus; conditions: for %GFP+ rep 1 / z-scoreMRSA+ rep 1: replicate 1; for %GFP+ rep 2 / z-scoreMRSA+ rep 2: replicate 2; for %GFP+ rep 3 / z-scoreMRSA+ rep 3: replicate 3; for z-scoreMRSA+ mean: mean of 3 replicates
Method in brief: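 HeLa cells infected with GFP-MRSA (MOI ~6.8), gentamicin-cleared, then incubated overnight at 37°C with inhibitors plus 5 µg/ml gentamicin; DMSO as negative control, triplicates. Flow cytometry gave % GFP-positive cells and cell count (viability surrogate); hits by plate z-score (MRSA ≤ -2, HeLa count ≥ -3).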

[1] = PKIS compound screen raw data, HeLa cell count
[2] = compound screen, HeLa cell count
[3] = PKIS compound screen raw data, MRSA-infected HeLa cells
[4] = Yes/No: effect without cell death
[5] = compound screen, MRSA-infected HeLa cells
[6] = PKIS compound screen, Yes/No call
[7] = PKIS compounds raw data, HeLa cell count
[8] = PKIS compound screen, Yes/No call (effect without cell death)
[9] = PKIS compounds raw data, MRSA-infected HeLa cells
[10] = PKIS compound screen, HeLa cell count
[11] = PKIS compound screen, MRSA-infected HeLa cells

SMILES | cell count rep 1 (HeLa cells; [1]) | cell count rep 2 (HeLa cells; [1]) | cell death (HeLa cells; Yes/No call from z-scoreHeLa) | z-scoreHeLa mean (HeLa cells; [2]) | z-scoreHeLa rep 1 (HeLa cells; [2]) | z-scoreHeLa rep 2 (HeLa cells; [2]) | z-scoreHeLa rep 3 (HeLa cells; [2]) | effect (intracellular MRSA; Yes/No call from z-scoreMRSA+) | hit (intracellular MRSA; [4]) | z-scoreMRSA+ mean (intracellular MRSA; [5]) | z-scoreMRSA+ rep 1 (intracellular MRSA; [5]) | z-scoreMRSA+ rep 2 (intracellular MRSA; [5]) | z-scoreMRSA+ rep 3 (intracellular MRSA; [5]) | cell count rep 1 (HeLa cells; [7]) | cell count rep 2 (HeLa cells; [7]) | cell count rep 3 (HeLa cells; [7]) | hit (intracellular MRSA; [8]) | %GFP+ rep 1 (intracellular MRSA; [9]) [%] | %GFP+ rep 2 (intracellular MRSA; [9]) [%] | %GFP+ rep 3 (intracellular MRSA; [9]) [%] | other results
Cc1cc(N2CCC(NS(=O)(=O)c3ccc(F)cc3)CC2)nc(Nc2cccc(C#N)c2)n1 [GSK1653537A] | 5368 | 4678 | No | 0.46 | 0.73 | 0.29 | 0.37 | No | No | -0.29 | -0.41 | -0.49 | 0.03 | – | – | – | – | – | – | – | cell count rep 3 (HeLa cells; [1]): 5821; %GFP+ rep 1 (intracellular MRSA; [3]): 23.5%; %GFP+ rep 2 (intracellular MRSA; [3]): 20.6%; %GFP+ rep 3 (intracellular MRSA; [3]): 22.3%
CN1C(=O)C(Nc2ccccc2)=C(c2ccccc2)C1=O [SB-300079] | – | – | – | – | – | – | – | – | – | – | – | – | – | 5536 | 7057 | 6914 | No | 22.0 | 24.1 | 24.3 | cell death (HeLa cells; [6]): No; z-scoreHeLa mean (HeLa cells; PKIS compound screen): 0.41; z-scoreHeLa rep 1 (HeLa cells; PKIS compound screen): -0.31; z-scoreHeLa rep 2 (HeLa cells; PKIS compound screen): 0.70; z-scoreHeLa rep 3 (HeLa cells; PKIS compound screen): 0.83; effect (intracellular MRSA; [6]): No; z-scoreMRSA+ mean (intracellular MRSA; PKIS compound screen): -0.64; z-scoreMRSA+ rep 1 (intracellular MRSA; PKIS compound screen): -0.99; z-scoreMRSA+ rep 2 (intracellular MRSA; PKIS compound screen): -0.37; z-scoreMRSA+ rep 3 (intracellular MRSA; PKIS compound screen): -0.55
Cc1nnc(-c2ccc(C)c(-c3ccc(C(=O)Nc4ccc(NS(C)(=O)=O)cc4)cc3)c2)o1 [GW702865X] | – | – | No | -0.34 | -0.64 | -0.08 | -0.29 | No | No | 0.42 | 0.75 | 0.77 | -0.26 | 4074 | 4158 | 6358 | – | 15.5 | 15.8 | 15.0 | –
Cc1nnc(-c2ccc(C)c(-c3ccc(C(=O)NCc4ccc(Cl)cc4)cc3)c2)o1 [GW708893X] | – | – | – | – | – | – | – | – | – | – | – | – | – | 5153 | 5899 | 7607 | No | 16.0 | 18.3 | 15.1 | cell death (HeLa cells; [6]): No; z-scoreHeLa mean (HeLa cells; PKIS compound screen): 0.63; z-scoreHeLa rep 1 (HeLa cells; PKIS compound screen): 0.34; z-scoreHeLa rep 2 (HeLa cells; PKIS compound screen): 1.23; z-scoreHeLa rep 3 (HeLa cells; PKIS compound screen): 0.31; effect (intracellular MRSA; [6]): No; z-scoreMRSA+ mean (intracellular MRSA; PKIS compound screen): 0.76; z-scoreMRSA+ rep 1 (intracellular MRSA; PKIS compound screen): 0.91; z-scoreMRSA+ rep 2 (intracellular MRSA; PKIS compound screen): 1.61; z-scoreMRSA+ rep 3 (intracellular MRSA; PKIS compound screen): -0.23
Cc1cccc(-c2nc(Nc3ccc4[nH]ncc4c3)c3ccccc3n2)n1 [GW857175X] | – | – | No | -2.21 | -2.48 | -2.27 | -1.88 | No | No | -0.54 | -0.0227 | -0.67 | -0.94 | 2034 | 1268 | 3042 | – | 13.1 | 11.5 | 12.7 | –
Cc1ccc(O)cc1Nc1ccnc2cc(-c3ccc(CN4CCCCC4)o3)ccc12 [GW557777X] | 30186 | 37597 | – | – | – | – | – | – | – | – | – | – | – | – | – | – | No | – | – | – | cell count rep 3 (HeLa cells; [1]): 49690; z-scoreHeLa mean (HeLa cells; [10]): 1.17; z-scoreHeLa rep 1 (HeLa cells; [10]): 1.53; z-scoreHeLa rep 2 (HeLa cells; [10]): 0.52; z-scoreHeLa rep 3 (HeLa cells; [10]): 1.46; cell death (HeLa cells; PKIS compound screen, Yes/No call on z-scoreHeLa): No; %GFP+ rep 1 (intracellular MRSA; [3]): 13.1%; %GFP+ rep 2 (intracellular MRSA; [3]): 14.2%; %GFP+ rep 3 (intracellular MRSA; [3]): 14.8%; z-scoreMRSA+ mean (intracellular MRSA; [11]): -1.44; z-scoreMRSA+ rep 1 (intracellular MRSA; [11]): -1.51; z-scoreMRSA+ rep 2 (intracellular MRSA; [11]): -1.30; z-scoreMRSA+ rep 3 (intracellular MRSA; [11]): -1.52; effect (intracellular MRSA; PKIS compound screen, Yes/No call on z-scoreMRSA+): No

— article PMC10999543, “Identification of kinase modulators as host-directed therapeutics against intracellular methicillin-resistant Staphylococcus aureus” (Frontiers in Cellular and Infection Microbiology, 2024)
